# In US20190365666A1, “METHODS FOR PREVENTION AND TREATMENT OF CARDIOMETABOLIC SYNDROME AND COMPOSITIONS USED THEREIN” (OmniActive Health Technologies Limited, priority 2015, published 2019):
# What was measured:
# [1] = Serum glucose, insulin, leptin, adiponectin and lipid profile in control and HFD rats; format: in vivo, Sprague Dawley rats; conditions: 2.5 mg/kg daily, 12 weeks
# Method: (§1) Male Sprague Dawley rats (7 rats/group, age: 8 week, weight: 180±20 g) were housed in a controlled environment with a 12:12-h light-dark cycle at 22° C. and provided with rat chow and water ad libitum. All experiments were conducted under the National Institutes of Health's Guidelines for the Care and Use of Laboratory Animals and approved by the Ethics Committee of the Veterinary Control Institute. After acclimation for 2 weeks, the rats were divided into four groups: Rats were randomly divided into the following groups: (1) Control, (2) High Fat Diet (HFD) (42% of calories from fat), (3) control+beta-cryptoxanthin (2.5 mg/kg) 4) HFD (42% of calories from fat)+beta-cryptoxanthin (2.5 mg/kg) was administered daily as supplement for 12 weeks.
# (§2) After a one week period of adaptation to laboratory conditions, the animals were randomly divided into four equal groups: 1) Control (n=7): untreated rats were allowed free access to a standard diet; 2) BCX Group, rats were fed a standard diet supplemented with beta-cryptoxanthin (n=7) 2.5 mg/kg; 3) HFD Group (high-fat diet; 42% of calories from fat; n=7): rats were fed a high-fat diet 4) HFD+BCX Group, rats were fed a high-fat diet (42% of calories from fat; n=7) supplemented with beta-cryptoxanthin 2.5 mg/kg. 5% suspension of beta-cryptoxanthin was dissolved in corn oil. At the end of the experiment, all rats were sacrificed by cervical dislocation. Blood samples were taken from rats in the morning upon overnight fasting for biochemical analyses and their visceral fat and liver samples were removed and weighed after sacrificing the animals.
# Blood was collected by cardiac puncture using an anticoagulant-free vacutainer tube, later centrifuged at 3,000×g for 10 min to obtain serum and kept frozen at −80° C. until it was assayed for biochemical parameters and malondialdehyde (MDA). Serum biochemical parameters were estimated using an automatic analyzer (Samsung LABGEO PT10, Samsung Electronics Co, Suwon, Korea). Repeatability and device/method precision of LABGEO^PT10 was established according to the IVR-PT06 guideline. Serum insulin, leptin and adiponectin levels were measured with the Rat Insulin Kit (Linco Research Inc, St. Charles, Mo., USA) by ELISA (Elx-800; Bio-Tek Instruments Inc, Vermont, USA).
# [2] = system: BCO2, TNF-α, PPAR-γ, Nrf-2, NFkB, IRS-1, HO-1 in liver tissue; test: Western blot of liver tissue markers in HFD treated rats; format: in vivo, Sprague Dawley rats; conditions: P<0.001
# [3] = system: VEGF, Nrf-2, NFkB, iNOS, ICAM-1, HO-1 in retina tissue; test: Western blot of retina tissue markers in HFD treated rats; format: in vivo, Sprague Dawley rats; conditions: FIG. 8
# [4] = Oxidative stress markers and antioxidant status (TBARS/MDA, TAC, SOD, CAT, GSHPx) in serum, retina and liver of control and HFD rats; format: in vivo, Sprague Dawley rats; conditions: 2.5 mg/kg daily, 12 weeks
# Method: as §1, §2
# The total antioxidant capacity (TAC) was measured using an antioxidant assay kit (Sigma, St Louis, Mo., USA). Trolox was used as an antioxidant standard to calculate Trolox equivalent antioxidant capacity; absorbance readings were taken at 520 nm. Lipid peroxidation was measured in terms of MDA formation, which is the major product of membrane lipid peroxidation done by a previously described method (Karatepe, 2004) with slight modification.
# The liver MDA content was measured by high performance liquid chromatography (HPLC, Shimadzu, Tokyo, Japan) using a Shimadzu UV-vis SPD-10 AVP detector and a CTO-10 AS VP column in a mobile phase consisting of 30 mM KH2PO4 and methanol (82.5+17.5, v/v; pH 3.6) at a flow rate of 1.2 ml/min. Column effluents were monitored at 250 nm and the volume was 20 μl. The liver homogenate (10%, w/v) was prepared in 10 mM phosphate buffer (pH 7.4), centrifuged at 13,000×g for 10 min at 4° C., and the supernatant was collected and stored at −80° C. for MDA analysis (Karatepe, 2004). Activities of superoxide dismutase (SOD), catalase (CAT) and glutathione peroxidase (GPx) of homogenized liver were measured using a commercial kit (Cayman Chemical, Ann Arbor, Mich., USA) according to the manufacturer's instructions.
# [5] = system: BCO2, TNF-α, PPAR-γ, Nrf-2, NFkB, IRS-1, HO-1 in liver tissue; test: Western blot of liver tissue markers in HFD treated rats; format: in vivo, Sprague Dawley rats
# Method: as §2
# For Western blot analyses protein extraction was performed by homogenizing the liver in 1 ml ice-cold hypotonic buffer A, containing 10 mM2-[4-(2-Hydroxyethyl)-1-piperazinyl] ethanesulfonic acid [HEPES] (pH 7.8), 10 mMKCl, 2 mM MgCl2, 1 mM DTT, 0.1 mM EDTA, and 0.1 mM phenylmethylsulfonyl-fluoride (PMSF). The homogenates were added with 80 μl of 10% Nonidet P-40 (NP-40) solution and then centrifuged at 14,000×g for 2 min. The precipitates were washed once with 500 μl of buffer A plus 40 μl of 10% NP-40, centrifuged, re-suspended in 200 μl of buffer C [50 mM HEPES [pH 7.8], 50 mMKCl, 300 mM NaCl, 0.1 mM EDTA, 1 mM dihiothreitol [DTT], 0.1 mM PMSF, 20% glycerol], and recentrifugedat 14,800×g for 5 min. The supernatants were collected for determinations of NF-KB, VEGF, iNOS, ICAM, Nrf2, and HO-1 according to the method described by Sahin et al. [2012]. Equal amounts of protein (50 μg) were electrophoresed and subsequently transferred onto a nitrocellulose membrane (Schleicher and Schuell Inc., Keene, N.H., USA).
# Antibodies against NF-κB, TNF-α, Nrf2, HO-1, PPAR-γ, and p-IRS1, (Abcam (Cambridge, UK) were diluted (1:1000) in the same buffer containing 0.05% Tween-20. Protein loading was controlled sing a monoclonal mouse antibody against β-actin (A5316; Sigma). Bands were analyzed densitometrically using an image analysis system (Image J; National Institute of Health, Bethesda, USA). (FIG. 12)
# [6] = system: differentiated 3T3-L1 cells; test: Real time PCR gene expression (nutrigenomics) study in differentiated 3T3-L1 adipocytes; format: cell-based, murine; conditions: 12.5 ug/mL, versus DMSO
# Method: 3T3L1 murine adipocytes model system was used to understand basic cellular mechanisms associated with diabetes, obesity and related disorders. Nutrigenomics study was carried out to evaluate effect of beta-cryptoxanthin on adipocyte cells, particularly differentiated 3T3-L1 cells, the study was based on real-time polymerase chain reaction (Real time PCR) with dose 12.5 ug/mL. The effect of beta-cryptoxanthin on Adipocyte differentiation and its activity for bio markers PPARG, SCD-1, acetyl Coa carboxylase (ACC), SREBP-1, C/EBPα and FAS were evaluated.
# See FIG. 4, where each set of bar graphs for tests with BCX and without BCX (DMSO) correspond from the leftside bar respectively with the heading legend of the factors tested (i.e. for the bar results of BCX, 0.9 for ACC alpha, 0.39 for C/EPB alpha, 0.33 for FAS, 0.7 for PPAR gamma, and 0.38 for SCD-1).
# [7] = Body weight, feed intake, visceral fat and liver weight in control and high fat diet rats; format: in vivo, Sprague Dawley rats; conditions: 2.5 mg/kg daily, 12 weeks
# Method: as §1
# The experiment was performed using 28 male Sprague-Dawley rats (8 weeks old, weighing 180±20 g), purchased from the Inonu University Laboratory Animal Research Center (Malatya, Turkey). Rats were housed in cages in a temperature and humidity controlled environment, on a 12-hr light and 12-hr dark cycle, designed for the purpose of the study. The temperature inside the rat cages was 21±2° C., relative humidity was 55±5% and consecutive light-dark cycles lasted 12 hours. The protocol of the study was approved by the Animal Experimentation Ethics Committee of Inonu University (Malatya, Turkey). All procedures involving rats were conducted in strict compliance with relevant laws, the Animal Welfare Act, Public Health Services Policy, and guidelines established by the Institutional Animal Care and Use Committee of the Institute. Prior the starting the experiment, animals were assigned to either a regular diet (control; 12% of calories from fat) or a high-fat diet (HFD, 42% of calories from fat). Control or HFD composed according to the American Institute of Nutrition AIN-93 (Reeves et al., 1993) recommendations of casein (20%), soybean oil (7%), wheat starch (53.2%), sucrose (10%), potato starch (5%), 1-cysteine (0.3%), vitamin mix AIN-93M (1%) and mineral mix AIN-93M (3.5%). The high-fat diets (42% calories from fat) were obtained from the basal AIN-93 diet, by replacement of wheat starch with fat (tallow 15% and soybean oil 10%). For induction of obesity (insulin resistance), the rats were fed with HFD for 12 weeks
# as §2
# [8] = HFD rats, listed as BC, 2.5 mg/kg
# [9] = HFD rats, listed as Beta-cryptoxanthin, 2.5 mg/kg
# [10] = HFD rats, Western blot, P<0.001
compound,measurement,setting,value
"CC1=C(/C=C/C(C)=C/C=C/C(C)=C/C=C/C=C(C)/C=C/C=C(C)/C=C/C2=C(C)C[C@@H](O)CC2(C)C)C(C)(C)CCC1 [BCX, beta-cryptoxanthin]",Adiponectin,"[1]; HFD rats, 2.5 mg/kg",decreased
same,Glucose,"[1]; HFD rats, 2.5 mg/kg",significantly reduced
same,Insulin,"[1]; HFD rats, 2.5 mg/kg",significantly reduced
same,Leptin,"[1]; HFD rats, 2.5 mg/kg",significantly reduced
same,Adiponectin,[1]; normal diet rats,10.8 µg/mL
same,FFA,[1]; normal diet rats,1.12 mM
same,Glucose,[1]; normal diet rats,78.29 mg/dL
same,HDL-C,[1]; normal diet rats,17.00 mg/dL
same,Insulin,[1]; normal diet rats,1.73 ng/mL
same,LDL-C,[1]; normal diet rats,25.00 mg/dL
same,Leptin,[1]; normal diet rats,30.43 ng/mL
same,T-C (total cholesterol),[1]; normal diet rats,48.6 mg/dL
same,TG,[1]; normal diet rats,20.57 mg/dL
same,enhancement of liver PPAR-α level,[2],3.53 fold
same,iNOS in retina tissue (effect in words),[3],decreased
same,Liver CAT,"[4]; HFD rats, 2.5 mg/kg",increased
same,Liver SOD,"[4]; HFD rats, 2.5 mg/kg",increased
same,Liver TBARS,"[4]; HFD rats, 2.5 mg/kg",decreased
same,Retinal TBARS,"[4]; HFD rats, 2.5 mg/kg",reducing
same,Serum TAC,"[4]; HFD rats, 2.5 mg/kg",increased
same,Serum TBARS,"[4]; HFD rats, 2.5 mg/kg",reducing
same,Liver CAT,[4]; [8],271.57 U/mg protein
same,Liver GSHPx,[4]; [8],17.43 U/mg protein
same,Liver SOD,[4]; [8],130.43 U/mg protein
same,Liver TBARS,[4]; [8],2.98 nmol/mg protein
same,Serum TAC,[4]; [8],0.64 U/mL
same,Serum TBARS,[4]; [8],1.64 nmol/mL
same,Liver CAT,[4]; [9],increased
same,Liver GSHPx,[4]; [9],increased
same,Liver SOD,[4]; [9],increased
same,Liver TBARS,[4]; [9],decreased
same,Liver CAT,[4]; normal diet rats,306.14 U/mg protein
same,Liver GSHPx,[4]; normal diet rats,50.29 U/mg protein
same,Liver SOD,[4]; normal diet rats,198.57 U/mg protein
same,Liver TBARS,[4]; normal diet rats,1.56 nmol/mg protein
same,Serum TAC,[4]; normal diet rats,1.19 U/mL
same,Serum TBARS,[4]; normal diet rats,0.67 nmol/mL
same,BCO2 expression in liver tissue (effect in words),[5]; FIG. 13,upregulate
same,Nrf2 expression in liver tissue (effect in words),"[5]; HFD rats, FIG. 16",decrease
same,NFkB in liver tissue (effect in words),"[5]; HFD rats, FIG. 17",decreased
same,HO-1 in liver tissue (effect in words),"[5]; HFD rats, FIG. 18",decreased
same,IRS-1 in liver (effect in words),"[5]; HFD rats, FIG. 19",increased
same,enhancement of liver HO-1 level,[5]; [10],1.41 fold
same,enhancement of liver p-IRS1 level,[5]; [10],1.33 fold
same,inhibition of liver NFkB expression,[5]; [10],22%
same,inhibition of liver TNF-α expression,[5]; [10],14%
same,PPAR gamma in liver tissue (effect in words),"[5]; HFD treated rats, FIG. 15",activated
same,ACC alpha expression (FIG. 4 bar result),[6],0.9
same,PPAR gamma expression (FIG. 4 bar result),[6],0.7
same,Feed intake,[7]; HFD rats,16.87 g/day
same,Final BW,"[7]; HFD rats, 2.5 mg/kg",decrease
same,Liver (weight),"[7]; HFD rats, 2.5 mg/kg",decreased
same,Visceral fat,"[7]; HFD rats, 2.5 mg/kg",decreased
same,Final BW,[7]; [8],325.43 g
same,Liver (weight),[7]; [8],18.46 g
same,Visceral fat,[7]; [8],14.93 g
same,Final BW,[7]; [9],significantly reduced
same,Visceral fat,[7]; [9],a tendency towards a decrease
same,Feed intake,[7]; normal diet rats,23.88 g/day
same,Final BW,[7]; normal diet rats,290.29 g
same,Liver (weight),[7]; normal diet rats,12.74 g
same,Visceral fat,[7]; normal diet rats,7.75 g
